# Laboratory results as given in US4156009A, “Diazepine derivatives” (Hexachimie, priority 1977, dated 1979).
# Tests used:
# [1] = test system: ulcers caused by phenylbutazone; experiment: Protective activity as regards ulcers caused by phenylbutazone; format: in vivo, rat (male, OFA strain); conditions: for Ulceration Index: maximum index 300
# Procedure: Male rats, of the OFA strain, weighing 160-180 g are placed on a diet of water 24 hours before the oral administration of the product studied (1 cm^3 /100 g). 30 minutes later, the rats receive 150 mg/kg phenylbutazone (1 cm^3 /100 g) orally.
# The stomachs are removed 6 hours after the last treatment. Each stomach is classified according to the following scale:
# The average of the results for a batch, multiplied by the percentage of rats having ulcers in this batch, gives an ulceration index whose maximum is 300.
# The following Table I gives the ulceration indices and the protective dose 50 (PD50) which corresponds to the index 150.
# Acute toxicity = experiment: Acute toxicity; design: species or system rat; conditions: in vivo
# Shay ulcers = experiment: Activity on Shay ulcers (pylorus ligation); format: in vivo, rat (male, OFA strain); conditions: 2 hours after binding; for Pepsin / pH / Volume / Acidity free / Acidity total: gastric liquid; for Acidity free / Acidity total: potentiometry; for Ulcers: number in the rumen; for Acidity free ds the secretion / Acidity total ds the secretion / Pepsin ds the secretion: whole secretion
# Procedure: Male rats of the OFA strain, weighing 190-210 g, receive a solution of 20% glucose and […] sodium chloride as their only food for 3 days.
# Under an ether anaesthetic, the pylorus is tied, while taking care not to include blood vessels in the binding. The tested product is administered intraperitoneally and the stomach is removed 2 hours after the binding. The gastric liquid is collected and the following parameters are measured:
# free acidity (potentiometry)
# total acidity (potentiometry)
# peptic activity (hydrolysis of albumen of oxen and measurement of the tyrosine liberated).
# The number of ulcers in the rumen are counted.
# [2] = 8 mg/kg intraperitoneally, p < 0.05
# [3] = 16 mg/kg intraperitoneally, p < 0.01
# [4] = 32 mg/kg intraperitoneally, p < 0.001
# [5] = 32 mg/kg intraperitoneally, p < 0.01
structure (smiles),measurement,setting,value
"CN1C(=O)CN=C(c2ccccc2)c2c(C3CC3)csc21 [Example 6, 6-Cyclopropyl-1,3-dihydro-1-methyl-5-phenyl-2-oxo-2H-thieno[2,3-e]diazepine]",Ulceration Index,[1]; 16 mg/kg orally,240
same,Ulceration Index,[1]; 32 mg/kg orally,179
same,Ulceration Index,[1]; 64 mg/kg orally,62
same,Ulceration Index,[1]; 128 mg/kg orally,29
same,ED50,"[1]; Rattus norvegicus, po, orally, corresponds to ulceration index 150, read-out: PD50 (protective dose 50)",39 mg/kg
same,LD50,"Acute toxicity; po, orally in the rat, read-out: lethal dose LD50",915 mg/kg
same,selectivity ratio,"Acute toxicity; LD50 / PD50, oral, rat, read-out: ratio of toxicity/activity or therapeutic index",~23
same,Pepsin,"Shay ulcers; 8 mg/kg intraperitoneally, ns",0.67 mg/mL
same,pH,"Shay ulcers; 8 mg/kg intraperitoneally, ns",1.19
same,Volume,Shay ulcers; [2],4.0 cm^3
same,Acidity free,"Shay ulcers; 8 mg/kg intraperitoneally, ns",91 mEq/l
same,Acidity total,"Shay ulcers; 8 mg/kg intraperitoneally, ns",109 mEq/l
same,Pepsin,"Shay ulcers; 16 mg/kg intraperitoneally, ns",0.67 mg/mL
same,pH,"Shay ulcers; 16 mg/kg intraperitoneally, ns",1.21
same,Volume,Shay ulcers; [3],2.7 cm^3
same,Acidity free,"Shay ulcers; 16 mg/kg intraperitoneally, ns",82 mEq/l
same,Acidity total,"Shay ulcers; 16 mg/kg intraperitoneally, ns",102 mEq/l
same,Pepsin,"Shay ulcers; 32 mg/kg intraperitoneally, ns",0.64 mg/mL
same,Volume,Shay ulcers; [4],1.7 cm^3
same,pH,"Shay ulcers; 32 mg/kg intraperitoneally, p < 0.05",1.67
same,Acidity free,Shay ulcers; [5],56.5 mEq/l
same,Acidity total,Shay ulcers; [5],80 mEq/l
same,Ulcers,Shay ulcers; 8 mg/kg intraperitoneally,0
same,Ulcers,Shay ulcers; 16 mg/kg intraperitoneally,0
same,Ulcers,Shay ulcers; 32 mg/kg intraperitoneally,0
same,Acidity free ds the secretion,"Shay ulcers; 8 mg/kg intraperitoneally, ns",388 mEq/l
same,Acidity total ds the secretion,"Shay ulcers; 8 mg/kg intraperitoneally, ns",459 mEq/l
same,Pepsin ds the secretion,Shay ulcers; [2],2.66 mg
same,Acidity free ds the secretion,Shay ulcers; [3],275 mEq/l
same,Acidity total ds the secretion,Shay ulcers; [3],335 mEq/l
same,Pepsin ds the secretion,Shay ulcers; [3],1.83 mg
same,Acidity free ds the secretion,Shay ulcers; [4],145 mEq/l
same,Acidity total ds the secretion,Shay ulcers; [4],189 mEq/l
same,Pepsin ds the secretion,Shay ulcers; [4],1.14 mg
